± gives the standard deviation of the averaged measurements.
Test system: Danio rerio embryo
Assay: benchmark concentration, MalformedAny+Mort@120 (percent of embryos dead or malformed at 120 hpf); higher = less toxic
Conditions: exposure window: 4-6 to 120 hpf
Protocol: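 Single zebrafish embryos in 96-well plates (200 µL; 0.5% DMSO vehicle) were exposed from about 4–6 hpf to 120 hpf at 7 or more concentrations up to 100 µM or the solubility limit, one plate per replicate. Each lab used its in-house protocol: Lab A used AB embryos in E3 with chorion on and daily renewal; Lab B used Tropical 5D embryos in E2, dechorionated, static; Lab C used AB embryos in E3 with chorion on, static. The percentage of dead or malformed embryos at 120 hpf was fitted per plate (positive control: per week) by bootstrap Curvep to give a benchmark concentration (BMC); inactive substances are set to the highest tested concentration, BMCs at the lowest tested concentration are floors.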

[1] = laboratory protocol: Lab A: static renewal, chorionated (SR-C), AB strain, E3
[2] = laboratory protocol: Lab C: static, chorionated (S-C), AB strain, E3
[3] = laboratory protocol: Lab B: static, dechorionated (S-DC), Tropical 5D strain, E2

SMILES	benchmark concentration [1] [µM]	benchmark concentration [2] [µM]	benchmark concentration [3] [µM]
CC(C)(C)[C@H](O)[C@H](Cc1ccc(Cl)cc1)n1cncn1 (racemic) [Paclobutrazol]	0.339 ± 0.16	23.1 ± 21	–
CC(C)(c1cc(Br)c(O)c(Br)c1)c1cc(Br)c(O)c(Br)c1 [3,3',5,5'-Tetrabromobisphenol A]	1.39	4.25 ± 0.23	2.97 ± 0.81
Nc1ccc(Cl)c(Cl)c1 [3,4-Dichloroaniline]	7.8 ± 0.11	14 ± 4.4	< 2
CCCc1cc(=O)[nH]c(=S)[nH]1 [6-Propyl-2-thiouracil]	> 100	–	> 100
CC[C@H](C)[C@H]1O[C@]2(C=C[C@@H]1C)C[C@@H]1C[C@@H](C/C=C(\C)[C@@H](O[C@H]3C[C@H](OC)[C@@H](O[C@H]4C[C@H](OC)[C@@H](O)[C@H](C)O4)[C@H](C)O3)[C@@H](C)/C=C/C=C3\CO[C@@H]4[C@H](O)C(C)=C[C@@H](C(=O)O1)[C@]34O)O2.CO[C@H]1C[C@H](O[C@H]2[C@H](C)O[C@@H](O[C@@H]3/C(C)=C/C[C@@H]4C[C@@H](C[C@]5(C=C[C@H](C)[C@@H](C(C)C)O5)O4)OC(=O)[C@@H]4C=C(C)[C@@H](O)[C@H]5OC/C(=C\C=C\[C@@H]3C)[C@]54O)C[C@@H]2OC)O[C@@H](C)[C@@H]1O [Abamectin]	–	0.436 ± 0.24	–
CC=O [Acetaldehyde]	> 100	> 100	> 100
CNC(=O)O/N=C/C(C)(C)SC [Aldicarb]	0.926 ± 0.4	1.94 ± 0.48	2.27 ± 0.83
CC(=O)Oc1ccccc1C(=O)O [Aspirin]	–	24.6 ± 18	> 100
CCNc1nc(Cl)nc(NC(C)C)n1 [Atrazine]	49 ± 5.9	> 100	> 100
CCC[CH2][Sn]([CH2]CCC)([CH2]CCC)[O][Sn]([CH2]CCC)([CH2]CCC)[CH2]CCC [Bis(tributyltin)oxide]	0.0463 ± 0.0031	1.08 ± 0.52	–
CC(C)(c1ccc(O)cc1)c1ccc(O)cc1 [Bisphenol A]	13 ± 2.4	21.8 ± 12	38.5 ± 2.8
Cn1c(=O)c2c(ncn2C)n(C)c1=O [Caffeine]	> 100	–	> 100
CCOP(=O)(OCC)Oc1nc(Cl)c(Cl)cc1Cl [Chlorpyrifos oxon]	–	0.2 ± 0.14	1.69 ± 0.43
CCOP(=S)(OCC)Oc1nc(Cl)c(Cl)cc1Cl [Chlorpyrifos]	0.879 ± 0.45	45.7	63.7 ± 35
c1ccc2c(c1)ccc1cc3c(ccc4ccccc43)cc12 [Dibenz(a,h)anthracene]	–	> 100	> 64
CCCCOC(=O)c1ccccc1C(=O)OCCCC [Dibutyl phthalate]	1.28 ± 0.24	38.2 ± 13	4.16 ± 0.31
CC/C(=C(/CC)c1ccc(O)cc1)c1ccc(O)cc1 [Diethylstilbestrol]	0.547 ± 0.03	3.37 ± 1.3	3.07 ± 0.69
CCCCOC(=O)C(C)Oc1ccc(Oc2ccc(C(F)(F)F)cn2)cc1 (stereo not drawn) [Fluazifop-butyl]	2.6 ± 1.5	53.8 ± 10	3.5 ± 1
C[Si](Cn1cncn1)(c1ccc(F)cc1)c1ccc(F)cc1 [Flusilazole]	1.41 ± 0.027	11.6 ± 5.1	6.04 ± 1.4

SMILES	benchmark concentration [1] [µM]	benchmark concentration [2] [µM]	benchmark concentration [3] [µM]
NC(=O)NO [Hydroxyurea]	> 100	–	> 100
CC(C)NC(=O)N1CC(=O)N(c2cc(Cl)cc(Cl)c2)C1=O [Iprodione]	11.7 ± 3.8	35.7 ± 18	62.3 ± 23
Cl[C@H]1[C@H](Cl)[C@@H](Cl)[C@@H](Cl)[C@H](Cl)[C@H]1Cl [Lindane]	1.24 ± 0.5	9.25 ± 4.2	35.6 ± 6.7
CON(C)C(=O)Nc1ccc(Cl)c(Cl)c1 [Linuron]	4.78 ± 0.21	29.7 ± 14	19.5 ± 9.7
Oc1c(Cl)c(Cl)c(Cl)c(Cl)c1Cl [Pentachlorophenol]	0.257 ± 0.15	0.818 ± 0.49	< 1
CCOP(=S)(OCC)SCSCC [Phorate]	2.53 ± 1.7	–	> 100
CC(C)c1cccc(C(C)C)c1O [Propofol]	0.502 ± 0.076	–	> 100
c1cc2ccc3cccc4ccc(c1)c2c34 [Pyrene]	3.81 ± 1.2	–	50.5 ± 25
CC(COc1ccc(Oc2ccccc2)cc1)Oc1ccccn1 (stereo not drawn) [Pyriproxyfen]	4.41 ± 1.7	–	65.4 ± 16
Oc1cccc(O)c1 [Resorcinol]	> 100	> 100	> 100
C=C(C)[C@H]1Cc2c(ccc3c2O[C@@H]2COc4cc(OC)c(OC)cc4[C@@H]2C3=O)O1 [Rotenone]	–	0.194 ± 0.15	< 1
CCCC(CCC)C(=O)O [Sodium valproate]	–	4.12	> 100
O=C1CCC(N2C(=O)c3ccccc3C2=O)C(=O)N1 (stereo not drawn) [Thalidomide]	> 100	–	> 100
CC(C)(C)C(=O)C(Oc1ccc(Cl)cc1)n1cncn1 (stereo not drawn) [Triadimefon]	1.51 ± 0.11	6.93 ± 6.8	7.61 ± 4.6
Oc1cc(Cl)ccc1Oc1ccc(Cl)cc1Cl [Triclosan]	1.2 ± 0.34	7.86 ± 5.5	3.62 ± 0.7
O=P(Oc1ccccc1)(Oc1ccccc1)Oc1ccccc1 [Triphenyl phosphate]	0.879 ± 0.45	30 ± 15	4.35 ± 0.61
O=P(OC(CCl)CCl)(OC(CCl)CCl)OC(CCl)CCl [Tris(1,3-dichloro-2-propyl) phosphate]	2.2 ± 0.24	15.9 ± 3.1	6.94 ± 2.6
CCCC(CCC)C(=O)O [Valproic acid]	–	6 ± 7.4	–
CN(C)C(=S)[S-].CN(C)C(=S)[S-].[Zn+2] [Ziram]	–	–	< 1
